Test results published in the SangsterLogP compilation.

**Q.** Which logP does the source give for `COCCOCCOC1OC2OC3(C)CCC4C(C)CCC(C1C)C24OO3` (centres undefined) here?
**A.** Its logP is 3.51.

**Q.** For `CO[C@@H]1O[C@@H]2O[C@@]3(C)CC[C@H]4[C@H](C)CC[C@@H]([C@H]1C)[C@@]24OO3` (relative stereo), which logP is on record?
**A.** Its logP is 2.86.

**Q.** With `CC1CCC2C(C)C(OC(=O)Oc3ccccc3)OC3OC4(C)CCC1C32OO4` (centres undefined) as the compound, how does the logP read?
**A.** Its logP is 3.38.

**Q.** Which logP does the source give for `CCO[C@H]1O[C@@H]2O[C@@]3(C)CC[C@H]4[C@H](C)CC[C@@H]([C@H]1C)[C@@]24OO3` here?
**A.** The logP was 3.29.

**Q.** With `CC1CCC2C(C)C(OCc3ccccc3)OC3OC4(C)CCC1C32OO4` (centres undefined) as the compound, how does the logP read?
**A.** The logP was 4.2.

**Q.** With `CCCC(=O)OC1OC2OC3(C)CCC4C(C)CCC(C1C)C24OO3` (centres undefined) as the compound, how does the logP read?
**A.** The logP was 2.99.

**Q.** For `CC(=O)OC1OC2OC3(C)CCC4C(C)CCC(C1C)C24OO3` (centres undefined), which logP is on record?
**A.** The logP was 2.08.

**Q.** Which logP does the source give for `CC(C)CCOC1OC2OC3(C)CCC4C(C)CCC(C1C)C24OO3` (centres undefined) here?
**A.** The logP was 4.07.

**Q.** For `CCCOC(=O)OC1OC2OC3(C)CCC4C(C)CCC(C1C)C24OO3` (centres undefined), which logP is on record?
**A.** Its logP is 3.11.

**Q.** Which logP does the source give for `CCC(=O)OC1OC2OC3(C)CCC4C(C)CCC(C1C)C24OO3` (centres undefined) here?
**A.** The logP was 2.33.

**Q.** Which logP does the source give for `CCCOC1OC2OC3(C)CCC4C(C)CCC(C1C)C24OO3` (centres undefined) here?
**A.** The logP was 3.65.

**Q.** Which logP does the source give for `CC1CCC2C(C)C(OC(=O)C=Cc3ccccc3)OC3OC4(C)CCC1C32OO4` (centres undefined) here?
**A.** The logP was 3.83.

**Q.** For `CC(C)OC1OC2OC3(C)CCC4C(C)CCC(C1C)C24OO3` (centres undefined), which logP is on record?
**A.** Its logP is 3.49.

**Q.** For `CCOC(=O)OC1OC2OC3(C)CCC4C(C)CCC(C1C)C24OO3` (centres undefined), which logP is on record?
**A.** Its logP is 2.37.
